Measurements taken from US20250195463A1, “ORGANOMETALLIC COMPLEX, CONTROLLED-RELEASE MULTI-FUNCTIONAL DRUG, PHARMACEUTICAL COMPOSITION, PROCESSES FOR THE PREPARATION THEREOF AND THEIR USE” (FACULDADE DE CIÊNCIAS DA UNIVERSIDADE DE LISBOA, priority 2022, published 2025).
Where two headings read alike, the source gives them in different places. Where a SMILES comes first, the peptide text is derived from it. [ ]: non-standard residue; d: D form. The star is where a group is joined. Levulinoyl = CC(=O)CCC(=O)*

What was measured:
[1] = tested on: MDA-MB-231 (FGFR−); experiment: MTT cytotoxicity assay; details: 48 h
Experimental: (§1) By way of example, the in vitro cytotoxicity of the conjugate RuPC1, complex 4 and peptide P2 was determined in four human breast cancer cell lines with different levels of expression of the receptor FGFR, namely MDA-MB-231 (FGFR−), MCF-7 (FGFR−), SK-BR-3 (FGFR+), and MDA-MB-134-VI (FGFR+). The cytotoxicity of RuPC1 was also determined in the stated cell lines at controlled pH 6.8 and 7.4. The cytotoxicity of the complexes 5, 8, 9, and the reference complex (2,2′-bipyridyl)(triphenylphosphane)(f-cyclopentadienyl)ruthenium(II) trifluoromethanesulfonate, [RuCp(PPh3)(bipy)][CF3SO3] (TM34) was only determined in the cell line MDA-MB-231. All the cell lines were from the American Type Culture Collection (ATCC) and were cultured in Dulbecco's Modified Eagle Medium+Glutamax-I (Gibco) supplemented with 10% fetal bovine serum (FBS) and 1% antibiotics, excepting the MDA-MB-134-VI for which it was used the double amount of FBS. The cell cultures were kept in an incubator Heraeus at 37° C. under humidified atmosphere at 5% CO2. The cell viability was evaluated resorting to the MTT ([3-(4,5-dimethylthiazol-2-yl)-2,5-diphenyltetrazolium bromide]) colorimetric assay, which is based on the reduction of the tetrazolium salt to purple formazan by mitochondrial dehydrogenases in metabolically active cells. For the assays, the cells were seeded in 96-well plates (2×10^4 to 3×10^4 cells/200 μL) and allowed to adhere overnight. The compounds were first dissolved in dimethyl sulfoxide to obtain 10 mM stock solutions, further used to prepare the working solutions, at 0.1 to 100 μM, by dilution in the cell culture medium. Alternatively, for the assays at controlled pH 6.8 and 7.4, RuPC1 was first dissolved in a solution of 15% dimethyl sulfoxide/85% phosphate buffer (10 mM in water) to obtain 1.5 mM stock solutions further incubated for 48 hours at both pH values prior to be used to prepare the working solutions, at 0.1 to 50 μM, by dilution in the cell culture medium. In both cases, after continuous exposure of the cells to the compounds for 48 h at 37° C., the medium was removed and the cells were incubated with 200 μL of MTT solution (0.5 mg/mL) for 3 h. Then, the solution was discarded and the purple formazan formed by the viable cells was dissolved in 200 μL of dimethyl sulfoxide. The cell viability (%) was determined relative to the control (cells incubated without compounds) by measuring the absorbance at 570 nm on a PowerWave Xs Bio-Tek Instruments plate spectrophotometer. The respective values of the half maximal inhibitory concentration (IC50) were calculated with the software GraphPad Prism. All the compounds were tested in at least two independent experiments, each comprising six replicates per concentration.

[2] = tested on: four human breast cancer cell lines with different levels of expression of the receptor FGFR; experiment: MTT cytotoxicity assay, comparisons across the cell line panel; format: cell-based; details: adopted experimental conditions (48 h)
Experimental: By way of example, the in vitro cytotoxicity of the conjugate RuPC1, complex 4 and peptide P2 was determined in four human breast cancer cell lines with different levels of expression of the receptor FGFR, namely MDA-MB-231 (FGFR−), MCF-7 (FGFR−), SK-BR-3 (FGFR+), and MDA-MB-134-VI (FGFR+). The cytotoxicity of RuPC1 was also determined in the stated cell lines at controlled pH 6.8 and 7.4. The cytotoxicity of the complexes 5, 8, 9, and the reference complex (2,2′-bipyridyl)(triphenylphosphane)(f-cyclopentadienyl)ruthenium(II) trifluoromethanesulfonate, [RuCp(PPh3)(bipy)][CF3SO3] (TM34) was only determined in the cell line MDA-MB-231. […] The cell viability was evaluated resorting to the MTT ([3-(4,5-dimethylthiazol-2-yl)-2,5-diphenyltetrazolium bromide]) colorimetric assay, which is based on the reduction of the tetrazolium salt to purple formazan by mitochondrial dehydrogenases in metabolically active cells. […] The cell viability (%) was determined relative to the control (cells incubated without compounds) by measuring the absorbance at 570 nm on a PowerWave Xs Bio-Tek Instruments plate spectrophotometer. The respective values of the half maximal inhibitory concentration (IC50) were calculated with the software GraphPad Prism. […]

[3] = tested on: SK-BR-3 (FGFR+); experiment: MTT cytotoxicity assay; details: human, 48 h
Experimental: as §1

[4] = tested on: MDA-MB-134-VI (FGFR+); experiment: MTT cytotoxicity assay; details: human, 48 h
Experimental: as §1

[5] = tested on: MCF-7 (FGFR−); experiment: MTT cytotoxicity assay; details: human, 48 h
Experimental: as §1

Row | Compound | IC50 ([1]; read-out: Cytotoxic activity expressed as IC50, Table 5, MDA-MB-231, 37° C.) [µM] | Cytotoxic activity in words [2] | IC50 [3] [µM] | IC50 ([1]; human) [µM] | IC50 [4] [µM] | IC50 [5] [µM]
1 | O=S(=O)([O-])C(F)(F)F.[Ru+2].c1cc[cH-]c1.c1ccc(-c2ccccn2)nc1.c1ccc(P(c2ccccc2)c2ccccc2)cc1 [TM34, (2,2′-bipyridyl)(triphenylphosphane)(f-cyclopentadienyl)ruthenium(II) trifluoromethanesulfonate, reference compound] | 0.52 | – | – | – | – | –
2 | CC(=O)CCC(=O)N[C@@H](C(=O)N[C@@H](CO)C(=O)N1CCC[C@H]1C(=O)N1CCC[C@@H]1C(=O)N[C@@H](CC(C)C)C(=O)N[C@H](C(=O)N[C@@H](CC(C)C)C(=O)NCC(=O)N[C@@H](CCC(N)=O)C(=O)N[C@@H](CC(C)C)C(=O)N[C@@H](CC(C)C)C(=O)N[C@@H](CO)C(N)=O)[C@@H](C)O)C(C)C [peptide P2, 4-oxopetanoyl-NH-^1valine-^2serine-^3proline-^4proline-^5leucine-^6threonine-^7leucine-^8glycine-^9glutamine-^10leucine-^11leucine-^12serine-CONH2] (Levulinoyl-[dV]SP[dP]LTLGQLLS-NH2) | – | did not show significant cytotoxic activity | > 100 | > 100 | > 100 | > 100
